The text below walks through data of PMC12024912, “Druggability Studies of Benzene Sulfonamide Substituted Diarylamide (E3) as a Novel Diuretic” (Biomedicines, 2025).

Like-named read-outs stand apart in the source and are kept apart here.

Series [1] has as its target T1, UT-B (Homo sapiens, UniProt Q13336).
T1 construct: endogenous in cells; host or cells: erythrocytes from healthy adult male volunteers
T1 sequence (Q13336 1-389): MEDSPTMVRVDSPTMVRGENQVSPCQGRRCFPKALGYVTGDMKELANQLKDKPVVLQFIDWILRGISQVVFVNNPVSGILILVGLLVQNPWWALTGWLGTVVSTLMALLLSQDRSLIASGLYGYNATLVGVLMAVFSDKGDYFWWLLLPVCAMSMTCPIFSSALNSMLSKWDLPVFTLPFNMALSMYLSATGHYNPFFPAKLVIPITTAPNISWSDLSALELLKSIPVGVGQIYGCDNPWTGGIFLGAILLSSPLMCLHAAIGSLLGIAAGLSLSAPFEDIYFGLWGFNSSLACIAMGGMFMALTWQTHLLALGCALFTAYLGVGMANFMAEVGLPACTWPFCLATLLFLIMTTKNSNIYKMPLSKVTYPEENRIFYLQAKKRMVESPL
Nature of the series: Erythrocyte lysis assay for UT-B inhibition, human erythrocytes. The series is classed as cell-based. As to the method: The erythrocyte lysis assay was modified from a method described previously. Erythrocytes obtained from veins were diluted to a hematocrit value of 2% in hyperosmolar PBS containing 1.25 mol/L urea and 5 mmol/L glucose and incubated at r.t. for 2 h. Then, 99 μL erythrocyte suspension from a reservoir was added to each well of a 96-well round-bottom microplate, then 1 μL of the testing compound (500, 125, 31.25, 7.81, 1.95, 0.488, 0.122, 0.031, 0.0076 μmol/L dissolved in DMSO) was added to erythrocyte suspension and shook it up with microoscillator for 1 min. Following 5 min incubation, 20 μL erythrocyte suspension was transferred into 96-well black microplates preloaded with 180 μL isotonic PBS (10 mM, urea-free). Erythrocyte lysis was monitored at 710 nm optical density (OD710) for 6 min, with lysis rates calculated using control values from the same plate as Equation (1):Lysis (%) = 100 × (Aneg − Atest)/(Aneg − Apos)(1) where Atest is the absorbance value from the test well, Aneg is from a negative no-lysis control well, and Apos is from a positive full-lysis control.

Series [2] can be described thus: Intestinal microbiota stability, rat. Format: in vitro ADME. The settings on record: Sprague-Dawley. As to the method:
(§1) Plasma from mice, rats, rabbits, and humans was obtained from blood after centrifugation at 3000 r/min for 10 min. Simulated gastric fluid (SGF, pH = 1, containing pepsin) and simulated intestinal fluid (SIF, pH = 6.8, containing trypsin) were configured previously in the experiments. SD rats and mice were collected, and after removing the mucus layer from the small intestine and colon, 20 times the volume of liquid bacterial culture medium was added. An intestinal microbiota suspension was obtained after anaerobic cultivation on a shaking table at 37 °C for 12 h. In the aforementioned systems, E3 was added at a final concentration of 1 μmol/L at 37 °C for different incubation times (0, 10, 20, 30, 60, 120, and 240 min). In liver metabolic stability assays, E3 was incubated with liver microsomes or liver homogenate from mice or rats for 60 min at 37 °C. The stop solution, 5 ng/mL tolbutamide (internal standard, IS) in acetonitrile, was added to stop the metabolic process. Post-centrifugation (18,000× g, 10 min, 4 °C), supernatants were subjected to liquid chromatography–tandem mass spectrometry (LC–MS/MS). Analyte-to-IS peak area ratios quantified residual percentages via Equation (2):Remaining% = (E3peak area/ISpeak area at different time)/(E3peak area/ISpeak area at 0 min) × 100%.(2)

A short description of series [3]: Liver microsome metabolic stability, rat. The series is classed as in vitro ADME. The settings on record: 60 min incubation, 37 °C. As to the method: as §1
Series [4] is described as follows: Liver homogenate metabolic stability, mouse. The series is classed as in vitro ADME. As to the method: as §1
Series [5] can be described thus: Pharmacokinetic study in rats. Format: in vivo, rat. As to the method:
Male SD rats were allowed free access to food in a controlled environment of 22 ± 2 °C, with a humidity level of 55% ± 5%, and maintained under a 12 h light/dark cycle. In the oral administration groups, E3 was delivered in a 0.5% CMC-Na solution at a dosage of 4 mg/kg body weight. Blood samples were collected by the orbital venous plexus and kept on ice at the following time points: 0.083, 0.167, 0.25, 0.5, 1, 2, 4, 6, 8, 12, and 24 h. E3 formulations (DMSO:PEG400:saline = 10:30:60, v/v) were administered via tail vein (1 mg/kg). Serial blood sampling (0.033, 0.083, 0.167, 0.333, 0.5, 1, 2, 4, 8, 12, and 24 h post-dose) yielded plasma via centrifugation (3000 r/min, 10 min, 4 °C), stored at −80 °C until PK analysis using DAS 3.2.8 (noncompartmental analysis model).
The analyte E3 and IS were dissolved in DMSO to generate the stock solutions. The working calibration of E3 was gradient-diluted with MeOH/H2O (1:1, v/v). Three microliters of working solutions were spiked with 27 μL of the blank rat plasma to establish the calibration standards. The final concentrations of the standard samples were 1, 2, 5, 10, 50, 250, 500, and 1000 ng/mL. Quality control samples (3/100/800 ng/mL) were prepared using identical protein precipitation protocols. Briefly, 30 μL calibrators and biological matrices were mixed with 450 μL stop solution, vortexed (5 min), and centrifuged (18,000× g, 10 min, 4 °C). Processed supernatants (2 μL injection volume) were subjected to LC-MS/MS analysis.
The analysis was conducted by an Xevo TQ-S Cronos Triple Quadrupole Mass Spectrometer coupled with an ACQUITY UPLC (Waters Corp, Milford, MA, USA). The chromatographic separation was conducted in an ACQUITY UPLC BEH C18 1.7 µm column (Waters, Milford, MA, USA) at 40 °C with a flow rate of 0.4 mL/min. The mobile phases were 0.1% (v/v) formic acid in water (A) and pure ACN (B). […] An electrospray ionization (ESI) source with multiple–reaction monitoring (MRM) in positive–ion mode was employed to quantify the analytes with the transitions of m/z 385.11 > 244.19 and m/z 271.136 > 91.01 for E3 and IS, respectively. The optimized cone voltage is 10 V and 24 V for E3 and IS, respectively. The collision energy is 12 V and 32 V for E3 and IS, respectively. MassLynx v4.2 (Waters Corp, Milford, MA, USA) was used for data acquisition and analysis.

Where [6] appears, read: male, SD, rat, plasma, iv, 1 mg/kg, single i.v. 1 mg/kg, n = 5.
[7] abbreviates: male, SD, rat, plasma, iv, single i.v. 1 mg/kg, n = 5.
[8] abbreviates: male, SD, rat, plasma, po, 4 mg/kg, single p.o. 4 mg/kg, n = 5.
Where [9] appears, read: male, SD, rat, plasma, po, single p.o. 4 mg/kg, n = 5.

Broadly, the IC50 is the concentration that gives 50% inhibition. The amount remaining is what is left of the initial amount, in per cent. What is called MRT is a mean duration of stay, worked out from the concentration-time curve. One may read the half-life as the time in which the quantity being followed falls by half. The low end stands for rapid decline, the high end for slow decline. Usually AUC(0-inf) stands for total exposure, with the tail of the curve extrapolated. Lower therefore signals low exposure. By AUC(0-t) is commonly meant exposure summed from dosing to a finite time, without extrapolation to infinity. Higher therefore signals more exposure. One may read the bioavailability as dose-corrected exposure relative to a reference, in per cent. In general, Tmax refers to the time at which the peak concentration occurs. In general, CL/F refers to the apparent clearance, not corrected for the fraction that reaches the circulation. In the case of `CC(=O)c1ccc(C(=O)Nc2cccc(NS(=O)(=O)c3ccccc3)c2)o1` [Compound E3, 5-acetyl-N-(3-(phenylsulfonamido)phenyl)furan-2-carboxamide], the “maximum inhibition rate, human cells” value in series [1] (erythrocyte lysis assay) is on record as “approximately 100%”. Also, the IC50 in series [1] (red blood cell lysis assay, read-out: IC50 for UT-B-promoted urea transport, humans) worked out at 25 nM. Further, the share remaining at 1 μmol/L in series [2] (colon microbiota suspension, n=3, read-out: Rat colon microbiota (remaining %)) is 82.3%; in series [2] (small intestine microbiota suspension, n=3, read-out: Rat small intestine microbiota (remaining %)), 87.4%. For the same molecule, in series [3], the “remaining amount, rat liver microsomes” value worked out at 61.1%. In series [4] (calculated with 45 mg/g liver, 50 g liver/kg), the “CLhep, mouse liver homogenate” value is recorded as 99.3 mL/min/kg. Besides, in series [4] (mouse, liver homogenate, 60 min incubation, 37 °C, n=3), the fraction remaining at 1 h came to 39.8%. In addition, in series [5] (after intragastric gavage administration), the “plasma concentration within 24 h” value was “less than 2 ng/mL”. Besides, the MRT is 1.1 h in series [5] (setting [6]) and ~6.1 h in series [5] (setting [8]). In addition, the half-life in series [5] (setting [6]) is 1.9 h; in series [5] (setting [8]), ~4.9 h. For the same molecule, the area under the curve AUC(0-inf) in series [5] (setting [7]) is 1120 ng·h/mL; in series [5] (setting [9]), 943 ng·h/mL. Moreover, the AUC(0-t) in series [5] (setting [7]) was 1120 ng·h/mL; in series [5] (setting [9]) it was 919 ng·h/mL. The Cmax in series [5] (male, SD, rat, plasma, iv, single i.v. 1 mg/kg, n = 5, read-out: C max) stood at 2540 ng/mL; in series [5] (male, SD, rat, plasma, po, p.o. 4 mg/kg, conversion of 170.3 ng/mL, read-out: Cmax in molar units), 443 nM; in series [5] (male, SD, rat, plasma, po, single p.o. 4 mg/kg, n = 5, read-out: C max), 170 ng/mL. The bioavailability in series [5] (male, SD, rat, plasma, oral, p.o. 4 mg/kg vs i.v. 1 mg/kg, read-out: F (oral bioavailability)) is 21.1%. The Tmax in series [5] (setting [8]) was ≤ 2 h. In series [5] (setting [9]), this molecule showed a CL/F of 70 mL/min/kg. In addition, in series [5] (single i.v. 1 mg/kg, n = 5), the “V (V/F row; V for the i.v. group)” value turned out to be 2.5 L/kg. Moreover, the V/F in series [5] (single p.o. 4 mg/kg, n = 5) is recorded as 30.1 L/kg.
